Like-named read-outs stand apart in the source and are kept apart here.
Assays:
[1] = Susceptibility to enzymatic degradation to the benzoic acid derivative; type: in vitro ADME
[2] = system: glucose synthesis; settings: in vitro; cited from earlier work
[3] = system: male rats; settings: cited from earlier work
[4] = system: fatty acid synthesis; settings: in vitro; cited from earlier work
[5] = system: primates; settings: cited from earlier work
[6] = system: guinea-pigs; settings: guinea pig, in vivo; cited from earlier work
[7] = rats; cited from earlier work
[8] = system: reproductive organs of male rats; settings: rat, in vivo; cited from earlier work
[9] = dogs; cited from earlier work
[10] = system: mice; settings: mouse, in vivo; cited from earlier work
[11] = system: reproductive organs of dogs; settings: dog, in vivo; cited from earlier work

Question: Which “enzymatic degradation to its benzoic acid derivative” value [1] does the source give for `Cc1cc(CC(C)C)ccc1CCC=O` [(I), 3-(4-Isobutyl-2-methylphenyl)propanal] here?
Answer: not susceptible

Question: With `CC(C)(C)c1ccc(C(=O)O)cc1` [tert-butyl benzoic acid] as the compound, how does the “inhibition of glucose synthesis” value [2] read?
Answer: inhibit

Question: What about the testicular effects [3] of the same compound?
Answer: testicular effects

Question: What about the “inhibition of fatty acid synthesis” value [4] of the same compound?
Answer: inhibit

Question: With `CC(C=O)Cc1ccc(C(C)(C)C)cc1` (centres unmarked) [Lilial, 3-(4-tert-butylphenyl)-2-methylpropanal] as the compound, how does the toxic effects [5] read?
Answer: No effects

Question: And the toxic effects [6]?
Answer: No effects

Question: And the “enzymatic degradation to tert-butyl benzoic acid (t-BBA)” value [7]?
Answer: enzymatically degraded

Question: And the “toxic effects on the reproductive organs” value [8]?
Answer: toxic effects

Question: And the “enzymatic degradation to tert-butyl benzoic acid (t-BBA)” value [9]?
Answer: enzymatically degraded

Question: What about the toxic effects [10] of the same compound?
Answer: No effects

Question: What about the “toxic effects on the reproductive organs” value [11] of the same compound?
Answer: toxic effects

From US20180282662A1, “Process” (GIVAUDAN SA, priority 2014, published 2018)
